Data from US20250339409A1, “USES OF PAN BET INHIBITORS” (VYNE THERAPEUTICS INC., priority 2021, published 2025).
“And” between values parts separate entries of the source, which are not always exact repeats. Equal values may be shown once.

Tested on: incisional skin wounds
Assay: Incisional skin wound healing model (external and internal scoring, time to complete healing, body weight)
Format: in vivo, female Hairless Skh-1 mice
Design: key to Mean internal scores, Score presence tissue mass: 0 = no tissue mass, 1 = small, 2 = moderate, 3 = large; key to Global external score per day (mean): sum of the scores of 4 external wound parameters; MBWC D 16 − D 0, individual mouse: unit not given here
Conditions: for Global external score per day (mean) / Mean score swelling per day / Mean score visibility (external) per day: BETi1 at 1%; for Mean score length (mm) per day / Mean score width (mm) per day: skin wound; for Body weight, individual mouse: in g (unit assumed)
Experimental: Incisional wounds (10 mm) are made over the entire thickness of the skin (about 1 mm) on both flanks of nine female Hairless Skh-1 mice divided into 3 groups (n=3) according to body weight on D0. Formulations or hydroalcoholic gel are administered topically once daily starting immediately after the induction of skin wounds on DO until the complete healing of both wounds of each mouse, at the same time in the morning. The effects of treatment on wound healing with the formulation used containing one dose of the novel BETi, the vehicle of this new compound (negative control) and a hydroalcoholic gel preventing wound healing (positive control), is evaluated by the daily scoring of the healing process externally. The scoring is based on the daily measurement of the length and width, swelling of each induced skin wound from DO until complete healing, the determination of the time required for complete healing of each of induced skin wounds, and after complete healing of both wounds of a same mouse, by the scoring of the healing process internally by evaluation of the visibility of the scar, the presence of a tissue mass (collagen+elastin) under the scar and the level of vascularization of the scar.
Mice are weighed 3 times per week from the day of induction of skin wounds (D0) until the complete healing of both wounds of each mouse and before sacrifice. The viability and the well being of mice of each cage is checked and recorded daily.
The scoring takes into account the following 4 parameters: The length of the skin wounds measured with a ruler.
The width of the skin wounds with the following scoring grid: • 0=skin wound completely closed, • 1=skin wound almost completely closed, • 2=skin wound moderately closed, • 3=skin wound wide open.
The swelling of the skin wounds with the following scoring grid: • 0=skin wound no or no longer swollen, • 1=skin wound slightly swollen, • 2=skin wound moderately swollen, • 3=skin wound highly swollen.
The visibility of the skin wounds with the following scoring grid: • 0=skin wound no or no longer visible, • 1=skin wound slightly visible, • 2=skin wound moderately visible, • 3=skin wound highly visible.
The sum of the scores of these 4 parameters gives the Global External Score of Wound Healing (GESWH). The time required for complete healing of each induced skin wound is also determined.
After the complete healing of both skin wounds of each mouse, mice are sacrificed, and the scoring of the healing process internally is performed for each wound and takes into account the following 3 parameters: • visibility of the scar with the following scoring grid: • 0=scar highly visible • 1=scar moderately visible, • 2=scar slightly visible • 3=scar non-visible.
The presence of a tissue mass (collagen+elastin) under the scar with the following scoring grid: • 0=no tissue mass present, • 1=small tissue mass present, • 2=moderate tissue mass present, • 3=large tissue mass present.
The level of vascularization of the scar with the following scoring grid: • 0=important vascularization of the scar, • 1=moderate vascularization of the scar, • 2=low vascularization of the scar, • 3=very little vascularization of the scar.
The sum of the scores of these 3 parameters gives the Global Internal Score of Wound Healing (GISWH). A macroscopic observation of all organs of the abdominal and thoracic cavities is performed on all mice. Any other organ with abnormal shape, size or colour is listed.
The body weight, mean body weight change (MBWC) of mice, the external scores of the length, width, swelling and visibility of skin wounds as well as the Global External Score of Wound Healing (GESWH), the time required for complete healing of skin wounds, and the internal scores of the visibility, the presence of a tissue mass and the vascularization of scars as well as the Global Interna Score of Wound Healing (GISWH) are analyzed at the end of the experimentation. […]

Compound: Cn1cc(-c2cccc(O)c2Oc2ccccc2)c2cc[nH]c2c1=O [BETi1]
- Global external score per day (mean) (D 0): 15.00
- Mean score swelling per day (D 0): 0.00
- Mean score visibility (external) per day (D 0): 3.00
- Global external score per day (mean) (D 1): 16.33
- Mean score swelling per day (D 1): 1.33
- Mean score visibility (external) per day (D 1): 3.00
- Global external score per day (mean) (D 2): 17.67
- Mean score swelling per day (D 2): 2.00
- Mean score visibility (external) per day (D 2): 3.00
- Global external score per day (mean) (D 3): 18.17
- Mean score swelling per day (D 3): 2.00
- Mean score visibility (external) per day (D 3): 3.00
- Global external score per day (mean) (D 4): 17.50
- Mean score swelling per day (D 4): 2.17
- Mean score visibility (external) per day (D 4): 3.00
- Global external score per day (mean) (D 5): 15.00
- Mean score swelling per day (D 5): 2.17
- Mean score visibility (external) per day (D 5): 3.00
- Global external score per day (mean) (D 6): 14.17
- Mean score swelling per day (D 6): 2.17
- Mean score visibility (external) per day (D 6): 3.00
- Global external score per day (mean) (D 7): 13.67
- Mean score swelling per day (D 7): 2.50
- Mean score visibility (external) per day (D 7): 3.00
- Global external score per day (mean) (D 8): 13.50
- Mean score swelling per day (D 8): 2.33
- Mean score visibility (external) per day (D 8): 2.83
- Global external score per day (mean) (D 9): 13.33
- Mean score swelling per day (D 9): 2.17
- Mean score visibility (external) per day (D 9): 2.83
- Global external score per day (mean) (D 10): 12.00
- Mean score swelling per day (D 10): 2.17
- Mean score visibility (external) per day (D 10): 2.83
- Global external score per day (mean) (D 11): 10.33
- Mean score swelling per day (D 11): 1.83
- Mean score visibility (external) per day (D 11): 2.67
- Global external score per day (mean) (D 12): 8.00
- Mean score swelling per day (D 12): 1.67
- Mean score visibility (external) per day (D 12): 2.17
- Global external score per day (mean) (D 13): 5.17
- Mean score swelling per day (D 13): 1.67
- Mean score visibility (external) per day (D 13): 1.17
- Global external score per day (mean) (D 14): 4.50
- Mean score swelling per day (D 14): 1.67
- Mean score visibility (external) per day (D 14): 0.83
- Global external score per day (mean) (D 15): 3.00
- Mean score swelling per day (D 15): 1.50
- Mean score visibility (external) per day (D 15): 0.50
- Global external score per day (mean) (D 16): 2.17
- Mean score swelling per day (D 16): 1.17
- Mean score visibility (external) per day (D 16): 0.33
- Global external score per day (mean) (D 17): 0.50
- Mean score swelling per day (D 17): 0.50
- Mean score visibility (external) per day (D 17): 0.00
- Mean internal scores, Global internal score (after complete healing): 2.00
- Mean internal scores, Score presence tissue mass (after complete healing): 0.50
- Mean internal scores, Score vascularization (after complete healing): 1.33
- Mean internal scores, Score visibility scar (after complete healing): 0.17
- global external lesion severity score (compared to hydroalcoholic gel, beginning at treatment day 5): statistically significant decrease (improvement) in global external lesion severity score
- complete healing earlier compared to hydroalcoholic gel (incisional lesions): approximately 5 days
- mean time to heal (incisional lesions): 15.5 days
- Mean time for complete wound healing, Day for complete healing (incisional wounds, once daily topical): 15.50 days
- swelling at wound edges (significantly different on Days 15, 16 and 17 compared to vehicle and hydroalcoholic gel): rapidly reduced the swelling at wound edges
- Mean score length (mm) per day (D 0): 10.00 mm
- Mean score width (mm) per day (D 0): 2.00 mm
- Mean score length (mm) per day (D 1): 10.00 mm
- Mean score width (mm) per day (D 1): 2.00 mm
- Mean score length (mm) per day (D 2): 10.00 mm
- Mean score width (mm) per day (D 2): 2.67 mm
- Mean score length (mm) per day (D 3): 10.00 mm
- Mean score width (mm) per day (D 3): 2.83 mm
- Mean score length (mm) per day (D 4): 9.33 mm
- Mean score width (mm) per day (D 4): 3.00 mm
- Mean score length (mm) per day (D 5): 7.50 mm
- Mean score width (mm) per day (D 5): 2.33 mm
- Mean score length (mm) per day (D 6): 6.50 mm
- Mean score width (mm) per day (D 6): 2.50 mm
- Mean score length (mm) per day (D 7): 5.67 mm
- Mean score width (mm) per day (D 7): 2.50 mm
- Mean score length (mm) per day (D 8): 5.67 mm
- Mean score width (mm) per day (D 8): 2.67 mm
- Mean score length (mm) per day (D 9): 5.50 mm
- Mean score width (mm) per day (D 9): 2.83 mm
- Mean score length (mm) per day (D 10): 4.83 mm
- Mean score width (mm) per day (D 10): 2.17 mm
- Mean score length (mm) per day (D 11): 3.83 mm
- Mean score width (mm) per day (D 11): 2.00 mm
- Mean score length (mm) per day (D 12): 2.67 mm
- Mean score width (mm) per day (D 12): 1.50 mm
- Mean score length (mm) per day (D 13): 1.50 mm
- Mean score width (mm) per day (D 13): 0.83 mm
- Mean score length (mm) per day (D 14): 1.17 mm
- Mean score width (mm) per day (D 14): 0.83 mm
- Mean score length (mm) per day (D 15): 0.50 mm
- Mean score width (mm) per day (D 15): 0.50 mm
- Mean score length (mm) per day (D 16): 0.33 mm
- Mean score width (mm) per day (D 16): 0.33 mm
- Mean score length (mm) per day (D 17): 0.00 mm
- Mean score width (mm) per day (D 17): 0.00 mm
- tolerability within the lesion sites and in general (throughout the treatment period): appeared to be well-tolerated
- Mean body weight (gram) per day (wound model, D 0): 26.61 gram
- Body weight, individual mouse (wound model, D 0, listed as BETi11.0%): 25.00 and 28.64 and 26.19
- Mean body weight (gram) per day (wound model, D 2): 25.53 gram
- Mean body weight (gram) per day (wound model, D 4): 25.70 gram
- Mean body weight (gram) per day (wound model, D 7): 26.10 gram
- Mean body weight (gram) per day (wound model, D 9): 26.85 gram
- Mean body weight (gram) per day (wound model, D 11): 27.01 gram
- Mean body weight (gram) per day (wound model, D 13): 26.88 gram
- Mean body weight (gram) per day (wound model, D 16): 27.33 gram
- Body weight, individual mouse (wound model, D 16, listed as BETi11.0%): 25.10 and 28.47 and 28.43
- MBWC D 16 − D 0, individual mouse (wound model, listed as BETi11.0%): 0.10 and −0.17 and 2.24
